US20020137929A1, “1 - (3-heterocyclylphenyl) isothiourea, -isourea, -guanidine and -amidine herbicidal agents” (Intellectual Property Department, BASF Aktiengesellschaft, priority 1998, published 2002)

How the values were obtained:
[1] = system: CHEAL (Lambsquarters, Common); assay: Preemergence herbicidal evaluation; assay type: in vivo, Chenopodium album; conditions: rated 4-5 weeks after treatment
Summary of the method: (§1)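 Each species is sown separately in potting soil over roughly an inch of soil before any emergence. The soil surface then receives an aqueous acetone spray delivering about 0.0156 to 0.500 kg/ha of compound. After four to five weeks, injury is scored from 0 to 9 relative to a control.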

[2] = system: TRZAWR (Wheat, Winter, cv Riband); assay: Preemergence herbicidal evaluation; assay type: in vivo, Triticum aestivum; conditions: rated 4-5 weeks after treatment
Summary of the method: as §1

[3] = system: IPOHE (Morningglory, Ivyleaf); assay: Preemergence herbicidal evaluation; assay type: in vivo, Ipomoea hederacea; conditions: rated 4-5 weeks after treatment
Summary of the method: as §1

GALAP (Galium) = assay: Postemergence herbicidal evaluation; assay type: in vivo, Galium aparine
Summary of the method: (§2)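 First, seedlings were raised for around two weeks. Next, test material in 50/50 acetone/water containing 0.5% TWEEN 20 was sprayed through a nozzle at 40 psi, equivalent to about 0.0156–0.500 kg/ha. Finally, after 4–5 weeks in the greenhouse, plants were rated 0–9.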

ORYSAT (Rice, Tebonnet) = assay: Preemergence herbicidal evaluation; assay type: in vivo, Oryza sativa, (L.) Tebonnet; conditions: rated 4-5 weeks after treatment
Summary of the method: as §1

CASOB (Sicklepod) = assay: Postemergence herbicidal evaluation; assay type: in vivo, Cassia obtusifolia
Summary of the method: as §2

[4] = system: ECHORC (Watergrass (Calif.)); assay: Preemergence weed control under flooded paddy conditions; assay type: in vivo, Echinochloa oryzoides; conditions: rated 3-4 weeks after treatment
Summary of the method: (§3)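 Visual injury scored 0-9 against control three to four weeks post-treatment, greenhouse-grown. Application: acetone/water (50/50) solutions dosed directly into flood water (1.5-3 cm over silt loam, planted top 0.5 cm), roughly 0.0313 to 0.500 kg/ha active ingredient.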

CYPIR (Rice Flatsedge) = assay: as above; assay type: in vivo, Cyperus iria; conditions: rated 3-4 weeks after treatment
Summary of the method: as §3

CYPSE (Flatsedge) [5] = assay: as above; assay type: in vivo, Cyperus serotinus; conditions: rated 3-4 weeks after treatment
Summary of the method: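 Silt loam, seeds in top 0.5 cm; flood held 1.5-3 cm; test cpd as acetone/water 50/50 into flood water, ~0.0313-0.500 kg/ha a.i.; greenhouse 3-4 wk; visual 0-9 score vs control.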

[6] = system: ECHORC (Watergrass (Calif.)); assay: Postemergence weed control under flooded paddy conditions; assay type: in vivo, Echinochloa oryzoides; conditions: postemergence weeds, 3-4 weeks after treatment
Summary of the method: (§4)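 Flood-water application, about 0.0313–0.500 kg/ha a.i. in aqueous/acetone 50/50 v/v; water depth 1.5–3 cm throughout. Weeds 3–5 cm, rice 1.5–2.5 leaf. Greenhouse; 0–9 visual rating vs control at 3–4 wk.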

AMBEL (Ragweed, Common) = assay: Preemergence herbicidal evaluation; assay type: in vivo, Ambrosia artemisifolia; conditions: rated 4-5 weeks after treatment
Summary of the method: as §1

ZEAMX (Corn, Field) [7] = assay: Preemergence herbicidal evaluation; assay type: in vivo, Zea mays; conditions: rated 4-5 weeks after treatment
Summary of the method: as §1

ZEAMX (Corn, Field) [8] = assay: Postemergence herbicidal evaluation; assay type: in vivo, Zea mays
Summary of the method: as §2

CYPSE (Flatsedge) [9] = assay: Postemergence weed control under flooded paddy conditions; assay type: in vivo, Cyperus serotinus; conditions: postemergence weeds, 3-4 weeks after treatment
Summary of the method: as §4

Cn1c(C(F)(F)F)cc(=O)n(-c2cc(N=C3SCC(=O)N3CC(=O)OC(C)(C)C)c(Cl)cc2F)c1=O [Compound 43, tert-Butyl 2-{{2-chloro-5-[3,6-dihydro-3-methyl-2,6-dioxo-4-(trifluoromethyl)-1(2H)-pyrimidinyl]-4-fluorophenyl}imino}-4-oxo-3-thiazolidineacetate]
Preemergence herbicidal rating CHEAL ([1]; rate 0.0156 kg/ha): 9.0
Preemergence herbicidal rating CHEAL ([1]; rate 0.0313 kg/ha): 9.0
Preemergence herbicidal rating CHEAL ([1]; rate 0.0625 kg/ha): 9.0
Preemergence herbicidal rating CHEAL ([1]; rate 0.1250 kg/ha): 9.0
Preemergence herbicidal rating CHEAL ([1]; rate 0.2500 kg/ha): 9.0
Preemergence herbicidal rating TRZAWR ([2]; rate 0.0156 kg/ha): 0.0
Preemergence herbicidal rating TRZAWR ([2]; rate 0.0313 kg/ha): 0.0
Preemergence herbicidal rating TRZAWR ([2]; rate 0.0625 kg/ha): 0.0
Preemergence herbicidal rating TRZAWR ([2]; rate 0.1250 kg/ha): 1.0
Preemergence herbicidal rating TRZAWR ([2]; rate 0.2500 kg/ha): 4.0
Preemergence herbicidal rating IPOHE ([3]; rate 0.0156 kg/ha): 0.0
Preemergence herbicidal rating IPOHE ([3]; rate 0.0313 kg/ha): 0.0
Preemergence herbicidal rating IPOHE ([3]; rate 0.0625 kg/ha): 0.0
Preemergence herbicidal rating IPOHE ([3]; rate 0.1250 kg/ha): 2.0
Preemergence herbicidal rating IPOHE ([3]; rate 0.2500 kg/ha): 9.0
Postemergence herbicidal rating GALAP (GALAP (Galium); Rate 0.0158 kg/ha): 0.0
Postemergence herbicidal rating GALAP (GALAP (Galium); Rate 0.0315 kg/ha): 4.0
Postemergence herbicidal rating GALAP (GALAP (Galium); Rate 0.0630 kg/ha): 4.0
Preemergence herbicidal rating ORYSAT (ORYSAT (Rice, Tebonnet); rate 0.0156 kg/ha): 0.0
Preemergence herbicidal rating ORYSAT (ORYSAT (Rice, Tebonnet); rate 0.0313 kg/ha): 0.0
Preemergence herbicidal rating ORYSAT (ORYSAT (Rice, Tebonnet); rate 0.0625 kg/ha): 0.0
Preemergence herbicidal rating ORYSAT (ORYSAT (Rice, Tebonnet); rate 0.1250 kg/ha): 0.0
Preemergence herbicidal rating ORYSAT (ORYSAT (Rice, Tebonnet); rate 0.2500 kg/ha): 0.0
Postemergence herbicidal rating CASOB (CASOB (Sicklepod); Rate 0.0158 kg/ha): 9.0
Postemergence herbicidal rating CASOB (CASOB (Sicklepod); Rate 0.0315 kg/ha): 9.0
Postemergence herbicidal rating CASOB (CASOB (Sicklepod); Rate 0.0630 kg/ha): 9.0
Herbicidal rating ECHORC ([4]; 0.0313 kg/ha): 5.0
Herbicidal rating ECHORC ([4]; 0.0625 kg/ha): 6.0
Herbicidal rating ECHORC ([4]; 0.1250 kg/ha): 7.0
Herbicidal rating ECHORC ([4]; 0.2500 kg/ha): 9.0
Herbicidal rating CYPIR (CYPIR (Rice Flatsedge); 0.0313 kg/ha): 0.0
Herbicidal rating CYPIR (CYPIR (Rice Flatsedge); 0.0625 kg/ha): 2.0
Herbicidal rating CYPIR (CYPIR (Rice Flatsedge); 0.1250 kg/ha): 4.0
Herbicidal rating CYPIR (CYPIR (Rice Flatsedge); 0.2500 kg/ha): 5.0
Herbicidal rating CYPSE (CYPSE (Flatsedge) [5]; 0.0313 kg/ha): 5.0
Herbicidal rating CYPSE (CYPSE (Flatsedge) [5]; 0.0625 kg/ha): 5.0
Herbicidal rating CYPSE (CYPSE (Flatsedge) [5]; 0.1250 kg/ha): 8.0
Herbicidal rating CYPSE (CYPSE (Flatsedge) [5]; 0.2500 kg/ha): 9.0
Herbicidal rating ECHORC ([6]; rate 0.0313 kg/ha): 5.0
Herbicidal rating ECHORC ([6]; rate 0.0825 kg/ha): 6.0
Herbicidal rating ECHORC ([6]; rate 0.1250 kg/ha): 7.0
Herbicidal rating ECHORC ([6]; rate 0.2500 kg/ha): 9.0
Preemergence herbicidal rating AMBEL (AMBEL (Ragweed, Common); rate 0.0156 kg/ha): 0.0
Preemergence herbicidal rating AMBEL (AMBEL (Ragweed, Common); rate 0.0313 kg/ha): 0.0
Preemergence herbicidal rating AMBEL (AMBEL (Ragweed, Common); rate 0.0625 kg/ha): 0.0
Preemergence herbicidal rating AMBEL (AMBEL (Ragweed, Common); rate 0.1250 kg/ha): 3.0
Preemergence herbicidal rating AMBEL (AMBEL (Ragweed, Common); rate 0.2500 kg/ha): 4.0
Preemergence herbicidal rating ZEAMX (ZEAMX (Corn, Field) [7]; rate 0.0156 kg/ha): 0.0
Preemergence herbicidal rating ZEAMX (ZEAMX (Corn, Field) [7]; rate 0.0313 kg/ha): 0.0
Preemergence herbicidal rating ZEAMX (ZEAMX (Corn, Field) [7]; rate 0.0625 kg/ha): 0.0
Preemergence herbicidal rating ZEAMX (ZEAMX (Corn, Field) [7]; rate 0.1250 kg/ha): 3.0
Preemergence herbicidal rating ZEAMX (ZEAMX (Corn, Field) [7]; rate 0.2500 kg/ha): 6.0
Postemergence herbicidal rating ZEAMX (ZEAMX (Corn, Field) [8]; Rate 0.0158 kg/ha): 4.5
Postemergence herbicidal rating ZEAMX (ZEAMX (Corn, Field) [8]; Rate 0.0315 kg/ha): 5.0
Postemergence herbicidal rating ZEAMX (ZEAMX (Corn, Field) [8]; Rate 0.0630 kg/ha): 5.5
Herbicidal rating CYPSE (CYPSE (Flatsedge) [9]; rate 0.0313 kg/ha): 5.0
Herbicidal rating CYPSE (CYPSE (Flatsedge) [9]; rate 0.1250 kg/ha): 8.0
Herbicidal rating CYPSE (CYPSE (Flatsedge) [9]; rate 0.2500 kg/ha): 9.0
